Data published in patent publication US8552208B2, “Analogs of tetramic acid” (University of Tennesseee Research Foundation, priority 2007, dated 2013).
Values after ≈ are worked out from the molar mass of the structure shown. Where two headings read alike, the source gives them in different places.

Tests used:
[1] = tested on: clinical isolates of MRSA (methicillin resistant S. aureus); type: cell-based
[2] = tested on: Mycobacterium tuberculosis H37 Rv; assay: Antibacterial activity assay (MIC, broth dilution); type: cell-based; settings: H37RV, 168 h; Mycobacterium tuberculosis H37 Rv; […]; read-out: MIC, TB
[3] = tested on: Propionibacterium acnes ATCC 6919; assay: Antibacterial activity assay (MIC, broth dilution); type: cell-based; settings: Cutibacterium acnes, ATCC6919; Propionibacterium acnes ATCC 6919; read-out: MIC, PA
[4] = tested on: clinical isolates of MSSA (methicillin sensitive S. aureus); type: cell-based
[5] = tested on: Bacillus subtilis ATCC 23857; assay: Antibacterial activity assay (MIC, broth dilution); type: cell-based; settings: ATCC23857; Bacillus subtilis ATCC 23857; read-out: MIC, BS
[6] = tested on: Enterococcus faecalis ATCC 33186; assay: Antibacterial activity assay (MIC, broth dilution); type: cell-based; settings: ATCC33186; Enterococcus faecalis ATCC 33186; read-out: MIC, EF
[7] = tested on: Methicillin sensitive Staphylococcus aureus 8325 ATCC 35556; assay: Antibacterial activity assay (MIC, broth dilution); type: cell-based; settings: ATCC 35556 / MSSA; Methicillin sensitive Staphylococcus aureus 8325 ATCC 35556; read-out: MIC, MSSA
[8] = tested on: Bacillus anthracis Sterne 34F2; assay: microbe, parasite or virus in culture; type: cell-based; settings: STERNE34F2, read-out: MIC, BA
[9] = tested on: Streptococcus pneumoniae DAW30EC; assay: Antibacterial activity assay (MIC, broth dilution); type: cell-based; settings: Streptococcus pneumoniae DAW30EC; read-out: MIC, SPn
[10] = tested on: Methicillin Resistant Staphylococcus aureus ATCC 33591; assay: Antibacterial activity assay (MIC, broth dilution); type: cell-based; settings: ATCC 33591 / MRSA, read-out: MIC, MRSA
[11] = tested on: Vero monkey kidney cell line (ATCC, CCL-81); assay: Cytotoxicity assay (MTT); type: cell-based; settings: IC50 divided by MIC against S. aureus 8325
Description: (§1) Cytotoxicity assays of drugs of Formula I of Example 3 and of Formula II of Example 5 were performed using the Vero monkey kidney cell line (ATCC, CCL-81). Vero cells were grown in tissue culture flasks in Dulbecco's Modified Eagle's Medium (ATCC) supplemented with 10% fetal bovine serum and maintained in a humidified incubator (37° C., 5% CO2). Cells were removed with a cell scraper, collected by centrifugation and then suspended in fresh medium at ˜10^6 cells/mL. The cell suspensions were dispensed into 96-well microtiter plates (100 μl/well) and incubated for 18 hours at 37° C. before being used for cytotoxicity assays. Test compounds were subsequently added at concentrations ranging from 400-0.024 μg/mL and 0.1% vol/vol of Triton-X 100, which causes 100% death of cells, was included as a control. After incubating cells and compounds for 72 hours in humid air (37° C., 5% CO2) the cytopathic effects of compounds were determined using the MTT Cell Proliferation Assay (ATCC, Cat No. 30-1010K). The MTT solution reagent (10 μl) was added to each well and plates incubated at 37° C. until sufficient purple color development occurred in cells (3 hours). After detergent cell lysis, the purple formazan product was measured at 570 nm in a Synergy HT Biotek microplate reader. IC50 data was obtained from dose response curves plotted from percentage activity versus log10 concentration using Graphpad prism 5.

[12] = Cytotoxicity assay (MTT); type: cell-based, monkey; settings: monkey, Vero cells, 72 hours, MTT, read-out: IC50 (Cytotoxicity): Concentration which reduces viability of Vero kidney cells by 50%
Description: as §1

[13] = tested on: Streptococcus pyogenes ATCC 700294; assay: Antibacterial activity assay (MIC, broth dilution); type: cell-based; settings: ATCC700294; Streptococcus pyogenes ATCC 700294; read-out: MIC, SP
[14] = tested on: MSSA (ATCC 25293) biofilm; assay: Calgary Biofilm Device anti-biofilm activity; type: cell-based; settings: Staphylococcus aureus, MSSA biofilm, triplicate runs listed singly; for MBC: read-out: MBEC = Minimum Biofilm Eradication Concentration; for MIC: read-out: MBIC = Minimum Biofilm Inhibitory Concentration
[15] = tested on: S. epidermidis (RP62A) biofilm; assay: Calgary Biofilm Device anti-biofilm activity; type: cell-based; settings: Staphylococcus epidermidis, S. epidermidis biofilm, triplicate runs listed singly; for MBC: read-out: MBEC = Minimum Biofilm Eradication Concentration; for MIC: read-out: MBIC = Minimum Biofilm Inhibitory Concentration
[16] = tested on: MRSA (ATCC 35391) biofilm; assay: Calgary Biofilm Device anti-biofilm activity; type: cell-based, Staphylococcus aureus; settings: Staphylococcus aureus, MRSA biofilm, triplicate runs listed singly; for MBC: read-out: MBEC = Minimum Biofilm Eradication Concentration; for MIC: read-out: MBIC = Minimum Biofilm Inhibitory Concentration
[17] = Vero monkey kidney cells (ATCC CCL-81)

Compound	Antibiotic MIC ([1]; isolate MRSA-1) [µg/mL]	Antibiotic MIC ([1]; isolate MRSA-2) [µg/mL]	Antibiotic MIC ([1]; isolate MRSA-3) [µg/mL]	MIC [2] [µg/mL]	MIC [3] [µg/mL]	MIC [5] [µg/mL]	MIC [6] [µg/mL]	MIC [7] [µg/mL]	MIC [8] [µg/mL]	MIC [9] [µg/mL]	MIC [10] [µg/mL]	IC50/MIC = Selectivity (therapeutic) index [11]	IC50 at 72 h [12, 17] [µg/mL]	MIC [13] [µg/mL]	MBC [14] [µg/mL]	MIC [14] [µg/mL]	MBC [15] [µg/mL]	MIC [15] [µg/mL]	MBC [16] [µg/mL]	MIC [16] [µg/mL]	also measured
CCCCCCCCCCN1C(=O)/C(=C(/C)O)C(=O)[C@@H]1Cc1ccccc1 [Compound 13n, (S,Z)-5-benzyl-1-decyl-3-(1-hydroxyethylidene)pyrrolidine-2,4-dione]	1.6	1.6	1.6	50 (≈ 135 µM)	0.4 (≈ 1.08 µM)	0.4 (≈ 1.08 µM)	0.8 (≈ 2.15 µM)	0.2 (≈ 0.538 µM)	0.2 (≈ 0.538 µM)	12.5 (≈ 33.6 µM)	0.8 (≈ 2.15 µM)	105.5	21.1	50 (≈ 135 µM)	–	–	–	–	–	–	Antibiotic MIC ([1]; isolate MRSA-4): 0.8 µg/mL; Antibiotic MIC ([1]; isolate MRSA-5): 0.8 µg/mL; Antibiotic MIC ([1]; isolate MRSA-6): 0.8 µg/mL; Antibiotic MIC ([1]; isolate MRSA-7): 0.8 µg/mL; Antibiotic MIC ([1]; isolate MRSA-8): 0.2 µg/mL; Antibiotic MIC ([1]; isolate MRSA-9): 0.8 µg/mL; Antibiotic MIC ([1]; isolate MRSA-10): 0.8 µg/mL; Antibiotic MIC ([4]; isolate MSSA-11): 0.8 µg/mL; Antibiotic MIC ([4]; isolate MSSA-12): 0.8 µg/mL; Antibiotic MIC ([4]; isolate MSSA-13): 0.8 µg/mL; Antibiotic MIC ([4]; isolate MSSA-14): 1.6 µg/mL; Antibiotic MIC ([4]; isolate MSSA-15): 0.2 µg/mL; Antibiotic MIC ([4]; isolate MSSA-16): 0.8 µg/mL; Antibiotic MIC ([4]; isolate MSSA-17): 0.8 µg/mL; Antibiotic MIC ([4]; isolate MSSA-18): 0.8 µg/mL; Antibiotic MIC ([4]; isolate MSSA-19): 0.4 µg/mL; Antibiotic MIC ([4]; isolate MSSA-20): 0.8 µg/mL
CC(C)=CCCC(C)CCN1C(=O)/C(=C(/C)O)C(=O)[C@@H]1CC(C)C (stereo partly drawn) [Compound 13m, (5S,Z)-1-(3,7-dimethyloct-6-enyl)-3-(1-hydroxyethylidene)-5-isobutylpyrrolidine-2,4-dione]	–	–	–	200 (≈ 596 µM)	0.4 (≈ 1.19 µM)	0.8 (≈ 2.38 µM)	0.8 (≈ 2.38 µM)	0.4 (≈ 1.19 µM)	0.4 (≈ 1.19 µM)	3.25 (≈ 9.69 µM)	0.8 (≈ 2.38 µM)	18.3	–	25 (≈ 74.5 µM)	200 (≈ 596 µM)	0.8 (≈ 2.38 µM)	200 (≈ 596 µM)	0.4 (≈ 1.19 µM)	50 (≈ 149 µM)	0.8 (≈ 2.38 µM)	IC50 at 72 h [12]: 7.3 µg/mL
CCCCCCCCCCN1C(=O)/C(=C(/C)O)C(=O)[C@@H]1C(C)C [Compound 13i, (S,Z)-1-decyl-3-(1-hydroxyethylidene)-5-isopropylpyrrolidine-2,4-dione]	–	–	–	12.5 (≈ 38.6 µM)	0.4 (≈ 1.24 µM)	0.4 (≈ 1.24 µM)	0.8 (≈ 2.47 µM)	0.8 (≈ 2.47 µM)	0.8 (≈ 2.47 µM)	6.25 (≈ 19.3 µM)	0.8 (≈ 2.47 µM)	8.8	7	25 (≈ 77.3 µM)	100 (≈ 309 µM)	0.8 (≈ 2.47 µM)	25 (≈ 77.3 µM)	0.8 (≈ 2.47 µM)	25 (≈ 77.3 µM)	0.8 (≈ 2.47 µM)	–
C/C(O)=C1\C(=O)[C@H](CC(C)C)N(Cc2ccc(-c3ccccc3)cc2)C1=O [Compound 13k, (S,Z)-1-(biphenyl-4-ylmethyl)-3-(1-hydroxyethylidene)-5-isobutylpyrrolidine-2,4-dione]	1.6	1.6	1.6	50 (≈ 138 µM)	0.2 (≈ 0.55 µM)	0.4 (≈ 1.1 µM)	0.8 (≈ 2.2 µM)	< 0.1	0.4 (≈ 1.1 µM)	12.5 (≈ 34.4 µM)	0.8 (≈ 2.2 µM)	>197	19.7	25 (≈ 68.8 µM)	100 (≈ 275 µM)	3.12 (≈ 8.58 µM)	200 (≈ 550 µM)	1.6 (≈ 4.4 µM)	100 (≈ 275 µM)	0.8 (≈ 2.2 µM)	Antibiotic MIC ([1]; isolate MRSA-4): 1.6 µg/mL; Antibiotic MIC ([1]; isolate MRSA-5): 1.6 µg/mL; Antibiotic MIC ([1]; isolate MRSA-6): 0.8 µg/mL; Antibiotic MIC ([1]; isolate MRSA-7): 0.8 µg/mL; Antibiotic MIC ([1]; isolate MRSA-8): 0.4 µg/mL; Antibiotic MIC ([1]; isolate MRSA-9): 1.6 µg/mL; Antibiotic MIC ([1]; isolate MRSA-10): 0.8 µg/mL; Antibiotic MIC ([4]; isolate MSSA-11): 1.6 µg/mL; Antibiotic MIC ([4]; isolate MSSA-12): 0.8 µg/mL; Antibiotic MIC ([4]; isolate MSSA-13): 0.8 µg/mL; Antibiotic MIC ([4]; isolate MSSA-14): 0.8 µg/mL; Antibiotic MIC ([4]; isolate MSSA-15): 0.4 µg/mL; Antibiotic MIC ([4]; isolate MSSA-16): 0.8 µg/mL; Antibiotic MIC ([4]; isolate MSSA-17): 0.8 µg/mL; Antibiotic MIC ([4]; isolate MSSA-18): 0.8 µg/mL; Antibiotic MIC ([4]; isolate MSSA-19): 0.8 µg/mL; Antibiotic MIC ([4]; isolate MSSA-20): 0.8 µg/mL
